# Test results reported in PMC10108347, “Heterobifunctional Ligase Recruiters Enable pan-Degradation of Inhibitor of Apoptosis Proteins” (Journal of Medicinal Chemistry, 2023).
# Read-outs that look alike come from different tables or passages of the source.
# Assays:
# [1] = tested on: NCI-H929; assay: CellTiter-Glo cell viability assay, NCI-H929; assay type: cell-based; details: Homo sapiens
# [2] = target: T1, plasma protein (HSA column) (Homo sapiens, UniProt P02768); assay: Plasma protein binding estimated by HPLC on a […] HSA column; assay type: in vitro ADME; details: CHIRALPAK HSA column (50 × 3 mm, 5 μm), estimated by an HPLC-based method, read-out: PPB (plasma protein binding) (converted)
# T1 construct: purchased
# In short: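 % PPB was estimated from log retention time on an HSA column (50 × 3 mm, 5 μm, 30 °C), calibrated against log K of literature-PPB reference drugs. Samples were eluted with 50 mM ammonium acetate pH 7.4 and an iPrOH gradient to 30%, with UV detection at 254 nm.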
# [3] = target: cIAP2 (Homo sapiens, UniProt Q13489); assay: Immunoblotting (western blot) quantification of cIAP2 levels in MM.1S cells; design: Dmax: dose or concentration left out as unconfirmed
# Description: (§1) To evaluate the capability of our panel of hetero-PROTACs for E3 ligase degradation, VHL19, VHL30, CRBN, cIAP1, cIAP2, and XIAP levels were quantified by western blot analyses. […] SDS-PAGE was performed, and proteins were then transferred onto PVDF membranes. Blotted membranes were blocked with 5% milk in Tris-buffered saline/Tween20 (TBST). Primary antibodies were diluted in 5% BSA in TBST, and incubations were performed overnight at 4 °C. Secondary HRP-conjugated antibodies diluted in 5% milk were incubated for 1 h at room temperature. Detection of proteins on PVDF was carried out using the WesternBright ECL HRP substrate or the WesternBright Sirius HRP substrate (Advansta, San Jose, USA) and imaged with LAS 4000× (Fujifilm). Membranes were subjected to 10 min incubation with Restore Western Blot Stripping Buffer (Thermo Fisher Scientific, Waltham, USA), followed by TBST washes. After brief re-activation with methanol, the membranes were blocked, and further probing of proteins was carried out.
# (§2) Quantification of blots was performed using ImageJ software (National Institutes of Health).
# [4] = tested on: K562; assay: CellTiter-Glo cell viability assay, K562; assay type: cell-based; details: Homo sapiens
# [5] = target: VHL19 (Homo sapiens, UniProt P40337); assay: Immunoblotting (western blot) quantification of VHL19 levels in MM.1S cells; details: 16 h, 1 μM
# Description: as §1, §2
# [6] = target: VHL30 (Homo sapiens, UniProt P40337); assay: Immunoblotting (western blot) quantification of VHL30 levels in MM.1S cells
# [7] = target: CRBN (Homo sapiens, UniProt Q96SW2); assay: Immunoblotting (western blot) quantification of CRBN levels in MM.1S cells; details: MM1.S, 16 h, read-out: %remaining protein CRBN
# Description: as §1, §2
# [8] = tested on: IKZF3; assay: Immunoblotting (western blot) quantification of IKZF3 levels in MM.1S cells; details: for %remaining protein IKZF3: 16 h treatment at 0.1 μM, normalized to loading control and DMSO
# Description: as §1, §2
# [9] = MM1.S, 16 h, read-out: %remaining protein cIAP2, MM.1S cells, 16 h treatment at 0.1 μM, normalized to loading control and DMSO
# Chain of cIAP2 (Q13489 whole entry): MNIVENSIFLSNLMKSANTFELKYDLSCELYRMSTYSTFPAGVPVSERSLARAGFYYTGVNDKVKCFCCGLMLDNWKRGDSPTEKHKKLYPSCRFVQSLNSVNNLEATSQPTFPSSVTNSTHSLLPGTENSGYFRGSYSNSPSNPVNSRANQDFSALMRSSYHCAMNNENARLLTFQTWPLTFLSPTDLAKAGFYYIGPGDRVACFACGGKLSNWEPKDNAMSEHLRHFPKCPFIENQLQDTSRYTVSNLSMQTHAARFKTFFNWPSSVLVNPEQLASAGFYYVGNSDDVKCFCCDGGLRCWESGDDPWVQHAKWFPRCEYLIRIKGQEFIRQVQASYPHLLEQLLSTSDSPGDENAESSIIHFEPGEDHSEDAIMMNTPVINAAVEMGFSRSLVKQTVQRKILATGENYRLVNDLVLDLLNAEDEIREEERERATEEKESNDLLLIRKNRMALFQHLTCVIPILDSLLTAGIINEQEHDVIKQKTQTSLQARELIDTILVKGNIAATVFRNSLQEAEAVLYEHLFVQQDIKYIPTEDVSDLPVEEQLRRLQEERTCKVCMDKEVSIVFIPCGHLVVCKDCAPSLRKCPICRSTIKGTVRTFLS
# Chain of CRBN (Q96SW2 whole entry): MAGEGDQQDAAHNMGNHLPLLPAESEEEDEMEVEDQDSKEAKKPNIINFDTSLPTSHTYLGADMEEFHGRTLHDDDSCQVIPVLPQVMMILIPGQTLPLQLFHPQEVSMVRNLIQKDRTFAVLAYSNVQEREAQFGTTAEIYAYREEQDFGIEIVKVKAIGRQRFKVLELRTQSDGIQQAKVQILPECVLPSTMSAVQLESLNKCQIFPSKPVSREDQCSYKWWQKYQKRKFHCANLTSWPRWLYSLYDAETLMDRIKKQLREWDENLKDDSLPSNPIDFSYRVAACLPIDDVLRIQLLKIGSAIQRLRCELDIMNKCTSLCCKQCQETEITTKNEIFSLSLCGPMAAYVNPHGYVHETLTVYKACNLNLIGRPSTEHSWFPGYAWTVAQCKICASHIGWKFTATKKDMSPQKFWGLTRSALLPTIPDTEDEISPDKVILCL
# Chain of VHL30 (P40337 whole entry): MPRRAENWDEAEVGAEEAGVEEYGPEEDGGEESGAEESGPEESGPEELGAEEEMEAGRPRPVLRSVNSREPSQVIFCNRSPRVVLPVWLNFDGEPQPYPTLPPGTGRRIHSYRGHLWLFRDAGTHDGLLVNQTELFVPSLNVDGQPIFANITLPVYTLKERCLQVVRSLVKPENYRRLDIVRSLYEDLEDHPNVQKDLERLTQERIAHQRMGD
# T1 sequence (P02768 25-609): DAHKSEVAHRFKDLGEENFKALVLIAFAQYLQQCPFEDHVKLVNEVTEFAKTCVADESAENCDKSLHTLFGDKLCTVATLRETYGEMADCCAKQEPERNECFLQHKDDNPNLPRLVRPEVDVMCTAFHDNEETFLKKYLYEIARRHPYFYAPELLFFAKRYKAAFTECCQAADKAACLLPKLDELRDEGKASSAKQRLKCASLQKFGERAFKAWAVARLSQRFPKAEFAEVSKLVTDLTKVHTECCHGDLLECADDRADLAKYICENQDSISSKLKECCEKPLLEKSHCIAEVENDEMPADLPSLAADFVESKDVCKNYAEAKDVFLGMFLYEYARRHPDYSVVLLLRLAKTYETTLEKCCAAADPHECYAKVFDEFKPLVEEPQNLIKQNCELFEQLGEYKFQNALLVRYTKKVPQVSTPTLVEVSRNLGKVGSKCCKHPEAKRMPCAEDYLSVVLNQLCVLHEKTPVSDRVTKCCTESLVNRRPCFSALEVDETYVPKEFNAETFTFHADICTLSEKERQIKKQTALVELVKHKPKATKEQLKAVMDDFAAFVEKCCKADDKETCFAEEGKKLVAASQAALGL
# Chain of VHL19 (P40337 54-213): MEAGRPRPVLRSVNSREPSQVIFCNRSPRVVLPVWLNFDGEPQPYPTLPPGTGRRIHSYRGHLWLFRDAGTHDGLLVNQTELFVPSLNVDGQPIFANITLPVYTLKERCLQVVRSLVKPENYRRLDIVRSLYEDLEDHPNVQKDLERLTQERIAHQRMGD
structure (smiles),measurement,setting,value
"CN[C@@H](C)C(=O)N[C@@H](C(=O)N1CCC[C@H]1C(=O)N[C@@H]1c2ccccc2C[C@@H]1OCC#CC#CCO[C@H]1Cc2ccccc2[C@H]1NC(=O)[C@@H]1CCCN1C(=O)[C@H](NC(=O)[C@H](C)NC)C1CCCCC1)C1CCCCC1 [AZD5582, reference compound]",IC50,"[1]; SI csv, head prints only the cell line, no quantity or unit, values parallel Table 1/S8, read-out: NCI-H929",0.014 µM
same,fraction unbound at 0.5 mg/mL,[2],0.06
same,cIAP2 degradation (in words),"[3]; MM.1S cells, 16 h, western blot, 0.1 or 1 μM",substantial degradation
same,IC50,"[4]; SI csv, head prints only the cell line, no quantity or unit, values parallel Table 1/S8, read-out: K562",0.019 µM
"CN[C@@H](C)C(=O)N[C@H](C(=O)N1C[C@@H](Oc2cccc(OCCCCC(=O)N[C@H](C(=O)N3C[C@H](O)C[C@H]3C(=O)N[C@@H](C)c3ccc(-c4scnc4C)cc3)C(C)(C)C)c2)C[C@H]1C(=O)N[C@@H]1CCCc2ccccc21)C1CCCCC1 [PROTAC 9, (2S,4S)-1-((S)-2-Cyclohexyl-2-((S)-2-(methylamino)propanamido)acetyl)-4-(3-((5-(((S)-1-((2S,4R)-4-hydroxy-2-(((S)-1-(4-(4-methylthiazol-5-yl)phenyl)ethyl)carbamoyl)pyrrolidin-1-yl)-3,3-dimethyl-1-oxobutan-2-yl)amino)-5-oxopentyl)oxy)phenoxy)-N-((R)-1,2,3,4-tetrahydronaphthalen-1-yl)pyrrolidine-2-carboxamide]",remaining VHL19,[5],24%
same,remaining activity at 0.1 µM,"[6]; MM1.S, 16 h, read-out: %remaining protein VHL30, MM.1S cells, 16 h treatment at 0.1 μM, normalized to loading control and DMSO",9%
same,VHL30 degradation (in words),"[6]; MM.1S cells, western blot",most pronounced after 6 h of treatment
same,IC50,"[1]; NCI-H929, MM cell line, 96 h, TNFα-challenged, read-out: IC50 cell viability NCI-H929",0.0085 µM
same,remaining activity at 0.1 µM,[3]; [9],21%
same,Dmax,"[3]; MM1.S, read-out: Dmax cIAP2 (maximum degradation), MM.1S cells, 16 h",90%
same,Dmax cIAP2 (maximum degradation),"[3]; MM.1S cells, 16 h, at 0.1 μM",>90%
same,DC50,"[3]; read-out: DC50,16h cIAP2, MM.1S cells, 16 h, densitometric quantification of western blots, n = 4",0.0062 µM
same,IC50,"[4]; K562, AML cell line, 96 h, TNFα-challenged, read-out: IC50 cell viability K562",0.42 µM
"CN[C@@H](C)C(=O)N[C@H](C(=O)N1C[C@@H](Oc2cccc(OCCOCCCCCCOCCCCCCNc3cccc4c3C(=O)N(C3CCC(=O)NC3=O)C4=O)c2)C[C@H]1C(=O)N[C@@H]1CCCc2ccccc21)C1CCCCC1 (stereo partly drawn) [PROTAC 25, (2S,4S)-1-((S)-2-Cyclohexyl-2-((S)-2-(methylamino)propanamido)acetyl)-4-(3-(2-((6-((6-((2-(2,6-dioxopiperidin-3-yl)-1,3-dioxoisoindolin-4-yl)amino)hexyl)oxy)hexyl)oxy)ethoxy)phenoxy)-N-((R)-1,2,3,4-tetrahydronaphthalen-1-yl)pyrrolidine-2-carboxamide]",remaining activity at 0.1 µM,[7],91%
same,IC50,"[1]; NCI-H929, 96 h, read-out: IC50 cell viability NCI-H929",0.027 µM
same,remaining activity at 0.1 µM,"[3]; MM1.S, 16 h, read-out: %remaining protein cIAP2",8%
same,IC50,"[4]; K562, read-out: K562",0.38 µM
same,IKZF3 degradation (in words),"[8]; 16 h, 1 μM",substantial IKZF3 degradation at 1 μM
same,%remaining protein IKZF3,[8],95%
"CN[C@@H](C)C(=O)N[C@H](C(=O)N1C[C@@H](Oc2cccc(OCCCCCCOCCCCCCOCCCCCCNc3cccc4c3C(=O)N(C3CCC(=O)NC3=O)C4=O)c2)C[C@H]1C(=O)N[C@@H]1CCCc2ccccc21)C1CCCCC1 (stereo partly drawn) [PROTAC 27, (2S,4S)-1-((S)-2-Cyclohexyl-2-((S)-2-(methylamino)propanamido)acetyl)-4-(3-((6-((6-((6-((2-(2,6-dioxopiperidin-3-yl)-1,3-dioxoisoindolin-4-yl)amino)hexyl)oxy)hexyl)oxy)hexyl)oxy)phenoxy)-N-((R)-1,2,3,4-tetrahydronaphthalen-1-yl)pyrrolidine-2-carboxamide]",remaining activity at 0.1 µM,[7],95%
same,remaining activity at 0.1 µM,[3]; [9],46%
same,%remaining protein IKZF3,[8],95%
